Values of other authors in patent US7879572B2, “Regulation of F1-ATPase beta subunit cellular location” (Board of Supervisors of Louisiana State University And …, priority 2004, dated 2011).

How the values were obtained:
[1] = tested on: islet cells; settings: 8-Br-cAMP 1 mM, independent of extracellular Ca2+

Nc1ncnc2c1nc(Br)n2[C@@H]1O[C@@H]2COP(=O)(O)O[C@H]2[C@H]1O [8-Br-cAMP]
effect on enterostatin inhibition of insulin secretion [1]: blocked

Oc1ccc2c3c1O[C@H]1c4[nH]c5c(c4C[C@@]4(O)[C@@H](C2)N(CC2CC2)CC[C@]314)C[C@@]1(O)[C@H]2Cc3ccc(O)c4c3[C@@]1(CCN2CC1CC1)[C@H]5O4 [nor-Binaltorphamine (BNI), nor-Binaltorphamine]
selective fat intake (kappa-opioidergic antagonist): mimicked the effect of enterostatin

NCCc1c[nH]c2ccc(O)cc12 [serotonin]
dietary fat intake (injections into the PVN): inhibited dietary fat intake
